Data published in article PMC10037499, “High-Throughput Screen Reveals the Structure–Activity Relationship of the Antimicrobial Lasso Peptide Ubonodin” (ACS Central Science, 2023).
≈ marks a conversion by molar mass, not a printed value. Where a SMILES comes first, the peptide text is derived from it.

Tests used:
B. cenocepacia AU0756 [1] = tested on: B. cenocepacia AU0756
Outline: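 Ubonodin variants were tested by broth microdilution following CLSI guidelines against clinical Burkholderia cenocepacia isolates AU0756 and AU24362.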

B. cenocepacia AU0756 [2] = tested on: B. cenocepacia AU0756; set-up: method as in PMID 35802499; details: spot-on-lawn assay; cited from earlier work
From the text: We proceeded to test the antimicrobial activity of the selected variants against two clinical isolates of the Bcc, B. cenocepacia AU0756 and B. cenocepacia AU24362, in broth microdilution assays. […] We revisited these measurements using broth microdilution assays following the Clinical & Laboratory Standards Institute (CLSI) standard.

[3] = tested on: RNA polymerase (RNAP) in E. coli MC1061; assay: High-throughput growth-based screen with NGS (enrichment value) for RNA polymerase inhibition; type: cell-based; details: log2 of frequency post-IPTG / frequency in cloning transformation library, single mutant library
Outline: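 E. coli MC1061 carrying ubonodin single/double variant plasmid libraries was grown and induced with 10 µM or 100 µM IPTG; surviving colonies were sequenced by NGS. Enrichment value = log2 of variant frequency post-IPTG over frequency in the cloning transformation library; depletion indicates RNAP inhibition.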

E. coli RNAP = details: cited from earlier work

CC[C@H](C)[C@@H]1NC(=O)[C@H](CO)NC(=O)CNC(=O)[C@H](CC(=O)O)NC(=O)CNC(=O)CNC(=O)CC[C@@H](C(=O)N[C@@H](Cc2ccc(O)cc2)C(=O)N[C@@H](Cc2ccccc2)C(=O)N[C@@H](CC(N)=O)C(=O)N[C@@H](CCCNC(=N)N)C(=O)N2CCC[C@H]2C(=O)N[C@@H](CCSC)C(=O)N[C@@H](Cc2c[nH]cn2)C(=O)N[C@H](C(=O)N[C@@H](Cc2c[nH]cn2)C(=O)N[C@@H](CC(=O)O)C(=O)N[C@@H](Cc2c[nH]c3ccccc23)C(=O)N[C@@H](CCC(N)=O)C(=O)N[C@H](C(=O)N[C@@H](CCSC)C(=O)N[C@@H](CC(=O)O)C(=O)N[C@@H](CO)C(=O)NCC(=O)N[C@@H](Cc2ccc(O)cc2)C(=O)N[C@@H](Cc2ccc(O)cc2)C(=O)NCC(=O)O)[C@@H](C)CC)[C@@H](C)CC)NC(=O)[C@H](C)NC1=O [WT, ubonodin] (HELM PEPTIDE1{G.G.D.G.S.I.A.E.Y.F.N.R.P.M.H.I.H.D.W.Q.I.M.D.S.G.Y.Y.G}$PEPTIDE1,PEPTIDE1,1:R1-8:R3$$$V2.0; C-terminus assumed)
B. cenocepacia AU0756 MIC (B. cenocepacia AU0756 [1]): 0.25 to 0.5 µM | MIC against strain AU0756 (B. cenocepacia AU0756 [2]): 10 µM (≈ 32 µg/mL) | Enrichment value ([3]; induction with 10 μM IPTG): −4.2 | Enrichment value ([3]; induction with 100 μM IPTG): −4.3 | Inhibition of E. coli RNAP in vitro (E. coli RNAP): inhibits E. coli RNAP in vitro
